From patent US20150011466A1, “APJ Receptor Compounds” (priority 2012, published 2015)
Like-named read-outs stand apart in the source and are kept apart here. Where a SMILES comes first, the peptide text is derived from it. [ ]: non-standard residue; d: D form. The star is where a group is joined. Palmitoyl = CCCCCCCCCCCCCCCC(=O)*; Aib = CC(C)(N)C(=O)O

How the values were obtained:
[1] = target: T1, APJ receptor (Homo sapiens, UniProt P35414); test: HTRF cAMP assay, inhibition of NKH477 stimulated cAMP in Human TRex cells expressing APJ upon doxycycline induction (APJ-hTREX); format: cell-based; details: for percent intrinsic activity at 0.3 µM: read-out: % IA (@ 300 nM); for Ranking: class combining EC50 and % histamine
T1 construct: expressed in transfected cells; host or cells: Human TRex cells (doxycycline-inducible)
T1 sequence (P35414 1-380): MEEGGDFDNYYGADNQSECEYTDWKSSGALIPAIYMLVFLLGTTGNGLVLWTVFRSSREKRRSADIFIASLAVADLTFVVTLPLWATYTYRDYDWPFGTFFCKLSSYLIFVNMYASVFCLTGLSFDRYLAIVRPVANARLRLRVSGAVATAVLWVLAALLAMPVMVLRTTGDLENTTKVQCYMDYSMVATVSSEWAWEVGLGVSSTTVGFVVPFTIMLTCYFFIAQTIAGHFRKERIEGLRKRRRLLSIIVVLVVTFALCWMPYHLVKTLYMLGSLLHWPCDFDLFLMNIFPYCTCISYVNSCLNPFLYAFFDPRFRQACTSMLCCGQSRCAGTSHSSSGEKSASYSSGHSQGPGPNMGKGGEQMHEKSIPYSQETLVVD
Outline: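 Cells stimulated with NKH477 and cAMP measured by HTRF competitive immunoassay (cryptate anti-cAMP antibody, d2-labeled cAMP). APJ-hTREX cells induced with […] doxycycline and seeded overnight at 40 k/well.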

[2] = Histimine (% vs. 48/40)

Row | percent intrinsic activity at 0.3 µM [1] [%] | Histimine (% vs. 48/40) [2] [%] | EC50 ([1]; inhibition of NKH477 stimulated cAMP, APJ-hTREX cells, read-out: APJ-hTREX EC50) [nM] | Compound | Ranking [1] | EC50 [1] [nM]
1 | 60 | 63 | – | CCCCCCCCCCCCCCCC(=O)N[C@H](C(=O)N[C@H](C(=O)N[C@@H](Cc1ccccc1)C(=O)N[C@@H](CCCNC(=N)N)C(=O)N[C@@H](CO)C(=O)N[C@@H](CO)C(=O)N[C@@H](CCC(=O)O)C(=O)N[C@H](CCCCN)C(=O)N[C@@H](CCCNC(=N)N)C(=O)N[C@@H](CCCNC(=N)N)C(=O)N1CCC[C@H]1C(=O)N[C@@H](C)C(=O)N[C@@H](CC(=O)O)C(=O)N[C@H](C(=O)N[C@@H](Cc1ccccc1)C(=O)N[C@H](C(N)=O)[C@@H](C)CC)[C@@H](C)CC)C(C)C)[C@@H](C)O [Compound 51] (Palmitoyl-TVFRSSE[dK]RRPADIFI-NH2) | – | –
2 | 45 | 75 | – | CCCCCCCCCCCCCCCC(=O)N[C@H](C(=O)N[C@H](C(=O)N[C@@H](Cc1ccccc1)C(=O)N[C@@H](CCCNC(=N)N)C(=O)N[C@@H](CO)C(=O)N[C@@H](CO)C(=O)N[C@@H](CCC(=O)O)C(=O)N[C@H](CCCCN)C(=O)N[C@@H](CCCNC(=N)N)C(=O)N[C@@H](CCCNC(=N)N)C(=O)N[C@@H](CO)C(=O)N1CCC[C@H]1C(=O)N[C@@H](CC(=O)O)C(=O)N[C@H](C(=O)N[C@@H](Cc1ccccc1)C(=O)N[C@H](C(N)=O)[C@@H](C)CC)[C@@H](C)CC)C(C)C)[C@@H](C)O [Compound 52] (Palmitoyl-TVFRSSE[dK]RRSPDIFI-NH2) | – | –
3 | 75 | 115 | – | CCCCCCCCCCCCCCCC(=O)N[C@H](C(=O)N[C@H](C(=O)N[C@@H](Cc1ccccc1)C(=O)N[C@@H](CCCNC(=N)N)C(=O)N[C@@H](CO)C(=O)N[C@@H](CO)C(=O)N[C@@H](CCC(=O)O)C(=O)N[C@H](CCCCN)C(=O)N[C@@H](CCCNC(=N)N)C(=O)N[C@@H](CCCNC(=N)N)C(=O)N[C@@H](CO)C(=O)N[C@@H](C)C(=O)N1CCC[C@H]1C(=O)N[C@H](C(=O)N[C@@H](Cc1ccccc1)C(=O)N[C@H](C(N)=O)[C@@H](C)CC)[C@@H](C)CC)C(C)C)[C@@H](C)O [Compound 53] (Palmitoyl-TVFRSSE[dK]RRSAPIFI-NH2) | – | –
4 | 46 | 60 | – | CCCCCCCCCCCCCCCC(=O)N[C@H](C(=O)N[C@H](C(=O)N[C@@H](Cc1ccccc1)C(=O)N[C@@H](CCCNC(=N)N)C(=O)N[C@@H](CO)C(=O)N[C@@H](CO)C(=O)N[C@@H](CCC(=O)O)C(=O)N[C@H](CCCCN)C(=O)N[C@@H](CCCNC(=N)N)C(=O)N[C@@H](CCCNC(=N)N)C(=O)N[C@@H](CO)C(=O)N[C@@H](C)C(=O)N[C@@H](CC(=O)O)C(=O)N1CCC[C@H]1C(=O)N[C@@H](Cc1ccccc1)C(=O)N[C@H](C(N)=O)[C@@H](C)CC)C(C)C)[C@@H](C)O [Compound 54] (Palmitoyl-TVFRSSE[dK]RRSADPFI-NH2) | – | –
5 | 43 | 33 | – | CCCCCCCCCCCCCCCC(=O)N[C@H](C(=O)N[C@H](C(=O)N[C@@H](Cc1ccccc1)C(=O)N[C@@H](CCCNC(=N)N)C(=O)N[C@@H](CO)C(=O)N[C@@H](CO)C(=O)N[C@@H](CCC(=O)O)C(=O)N[C@H](CCCCN)C(=O)N[C@@H](CCCNC(=N)N)C(=O)N[C@@H](CCCNC(=N)N)C(=O)N[C@@H](CO)C(=O)N[C@@H](C)C(=O)N[C@@H](CC(=O)O)C(=O)N[C@H](C(=O)N1CCC[C@H]1C(=O)N[C@H](C(N)=O)[C@@H](C)CC)[C@@H](C)CC)C(C)C)[C@@H](C)O [Compound 55] (Palmitoyl-TVFRSSE[dK]RRSADIPI-NH2) | – | –
6 | 92 | 50 | 15.4 | CCCCCCCCCCCCCCCC(=O)N[C@H](C(=O)N[C@H](C(=O)N[C@@H](Cc1ccccc1)C(=O)N[C@@H](CCCNC(=N)N)C(=O)N[C@@H](CO)C(=O)N[C@@H](CO)C(=O)N[C@@H](CCC(=O)O)C(=O)N[C@H](CCCCN)C(=O)N[C@@H](CCCNC(=N)N)C(=O)N[C@@H](CCCNC(=N)N)C(=O)N[C@@H](CO)C(=O)N[C@@H](C)C(=O)N[C@@H](CC(=O)O)C(=O)N[C@H](C(=O)N[C@@H](Cc1ccccc1)C(=O)N1CCC[C@H]1C(N)=O)[C@@H](C)CC)C(C)C)[C@@H](C)O [Compound 56] (Palmitoyl-TVFRSSE[dK]RRSADIFP-NH2; C-terminus assumed) | *** (EC50<100 nM and % histamine>35%) | –
7 | 51 | 25 | – | CCCCCCCCCCCCCCCC(=O)N[C@H](C(=O)N[C@H](C(=O)N[C@@H](Cc1ccccc1)C(=O)N[C@@H](CCCNC(=N)N)C(=O)N[C@@H](CO)C(=O)N[C@@H](CO)C(=O)N[C@@H](CCC(=O)O)C(=O)N[C@H](CCCCN)C(=O)N[C@@H](CCCNC(=N)N)C(=O)NC(C)(C)C(=O)N[C@@H](CO)C(=O)N[C@@H](C)C(=O)N[C@@H](CC(=O)O)C(=O)N[C@H](C(=O)N[C@@H](Cc1ccccc1)C(=O)N[C@H](C(N)=O)[C@@H](C)CC)[C@@H](C)CC)C(C)C)[C@@H](C)O [Compound 62, TVFRSSEkR(Aib)SADIFI] (Palmitoyl-TVFRSSE[dK]R[Aib]SADIFI-NH2) | – | –
8 | 61 | 86 | – | CCCCCCCCCCCCCCCC(=O)N[C@H](C(=O)N[C@H](C(=O)N[C@@H](Cc1ccccc1)C(=O)N[C@@H](CCCNC(=N)N)C(=O)N[C@@H](CO)C(=O)N[C@@H](CO)C(=O)N[C@@H](CCC(=O)O)C(=O)N[C@H](CCCCN)C(=O)N[C@@H](CCCNC(=N)N)C(=O)N[C@@H](CCCNC(=N)N)C(=O)NC(C)(C)C(=O)N[C@@H](C)C(=O)N[C@@H](CC(=O)O)C(=O)N[C@H](C(=O)N[C@@H](Cc1ccccc1)C(=O)N[C@H](C(N)=O)[C@@H](C)CC)[C@@H](C)CC)C(C)C)[C@@H](C)O [Compound 63, TVFRSSEkRR(Aib)ADIFI] (Palmitoyl-TVFRSSE[dK]RR[Aib]ADIFI-NH2) | – | –

Row | Compound | percent intrinsic activity at 0.3 µM [1] [%] | Histimine (% vs. 48/40) [2] [%] | EC50 ([1]; inhibition of NKH477 stimulated cAMP, APJ-hTREX cells, read-out: APJ-hTREX EC50) [nM] | Ranking [1] | EC50 [1] [nM]
9 | CCCCCCCCCCCCCCCC(=O)N[C@H](C(=O)NC(C)(C)C(=O)N[C@@H](Cc1ccccc1)C(=O)N[C@@H](CCCNC(=N)N)C(=O)N[C@@H](CO)C(=O)N[C@@H](CO)C(=O)N[C@@H](CCC(=O)O)C(=O)N[C@H](CCCCN)C(=O)N[C@@H](CCCNC(=N)N)C(=O)N[C@@H](CCCNC(=N)N)C(=O)N[C@@H](CO)C(=O)N[C@@H](C)C(=O)N[C@@H](CC(=O)O)C(=O)N[C@H](C(=O)N[C@@H](Cc1ccccc1)C(=O)N[C@H](C(N)=O)[C@@H](C)CC)[C@@H](C)CC)[C@@H](C)O [Compound 57] (Palmitoyl-T[Aib]FRSSE[dK]RRSADIFI-NH2; C-terminus assumed) | 77 | 39 | – | *** (EC50<100 nM and % histamine>35%) | 68
10 | CCCCCCCCCCCCCCCC(=O)N[C@H](C(=O)N[C@H](C(=O)N[C@@H](Cc1ccccc1)C(=O)NC(C)(C)C(=O)N[C@@H](CO)C(=O)N[C@@H](CO)C(=O)N[C@@H](CCC(=O)O)C(=O)N[C@H](CCCCN)C(=O)N[C@@H](CCCNC(=N)N)C(=O)N[C@@H](CCCNC(=N)N)C(=O)N[C@@H](CO)C(=O)N[C@@H](C)C(=O)N[C@@H](CC(=O)O)C(=O)N[C@H](C(=O)N[C@@H](Cc1ccccc1)C(=O)N[C@H](C(N)=O)[C@@H](C)CC)[C@@H](C)CC)C(C)C)[C@@H](C)O [Compound 58] (Palmitoyl-TVF[Aib]SSE[dK]RRSADIFI-NH2; C-terminus assumed) | 54 | 11 | – | * (EC50>500 nM and % histamine>35%) | 10000
11 | CCCCCCCCCCCCCCCC(=O)N[C@H](C(=O)N[C@H](C(=O)N[C@@H](Cc1ccccc1)C(=O)N[C@@H](CCCNC(=N)N)C(=O)N[C@@H](CO)C(=O)N[C@@H](CO)C(=O)N[C@@H](CCC(=O)O)C(=O)NC(C)(C)C(=O)N[C@@H](CCCNC(=N)N)C(=O)N[C@@H](CCCNC(=N)N)C(=O)N[C@@H](CO)C(=O)N[C@@H](C)C(=O)N[C@@H](CC(=O)O)C(=O)N[C@H](C(=O)N[C@@H](Cc1ccccc1)C(=O)N[C@H](C(N)=O)[C@@H](C)CC)[C@@H](C)CC)C(C)C)[C@@H](C)O [Compound 60] (Palmitoyl-TVFRSSE[Aib]RRSADIFI-NH2; C-terminus assumed) | 65 | 26 | – | **** (EC50 101-500 nM and % histamine<35%) | 167
12 | CCCCCCCCCCCCCCCC(=O)N[C@H](C(=O)N[C@H](C(=O)N[C@@H](Cc1ccccc1)C(=O)N[C@@H](CCCNC(=N)N)C(=O)N[C@@H](CO)C(=O)N[C@@H](CO)C(=O)N[C@@H](CCC(=O)O)C(=O)N[C@H](CCCCN)C(=O)NC(C)(C)C(=O)N[C@@H](CCCNC(=N)N)C(=O)N[C@@H](CO)C(=O)N[C@@H](C)C(=O)N[C@@H](CC(=O)O)C(=O)N[C@H](C(=O)N[C@@H](Cc1ccccc1)C(=O)N[C@H](C(N)=O)[C@@H](C)CC)[C@@H](C)CC)C(C)C)[C@@H](C)O [Compound 61, TVFRSSEk(Aib)RSADIFI] (Palmitoyl-TVFRSSE[dK][Aib]RSADIFI-NH2; C-terminus assumed) | 62 | 25 | – | – | 5210
